Earlier results on five molecules are cited in publication PMC4393105, “tRNA^Glu Increases the Affinity of Glutamyl-tRNA Synthetase for Its Inhibitor Glutamyl-Sulfamoyl-Adenosine, an Analogue of the Aminoacylation Reaction Intermediate Glutamyl-AMP: Mechanistic and Evolutionary Implications” (PLoS ONE, 2015).

One series deals with PheRS from baker’s yeast. The following applies: read-out: K d aa-AMP aaRS, cited from earlier work.
In series [1] the target is ThrRS from yeast mitochodria. Details: method as in PMID 22773845. The following applies: read-out: K d aa-AMP aaRS; cited from earlier work.
The next series deals with IleRS from E. coli. Details: method as in earlier work. The following applies: reviewed by Fersht, 1998, 48; cited from earlier work.

Molecules are shown by their SMILES. pKd: −log10 of the molar value. Like-named read-outs stand apart in the source and are kept apart here.

`Nc1ncnc2c1ncn2[C@@H]1O[C@H](COP(=O)(O)OC(=O)[C@@H](N)Cc2ccccc2)[C@@H](O)[C@H]1O` [Phe-AMP]: the pKd at PheRS from baker’s yeast (cognate aa-AMP) was 8.30. Turning to `Nc1ncnc2c1ncn2C1OC(COS(=O)(=O)NC(=O)[C@@H](N)CO)[C@@H](O)[C@H]1O` (some centres unmarked) [Ser-AMS, Seryl-sulfamoyl-adenosine], the pKd in series [1] was 6.35.

As to `C[C@@H](O)[C@H](N)C(=O)NS(=O)(=O)OC[C@@H]1O[C@H](n2cnc3c(N)ncnc32)[C@@H](O)[C@H]1O` [Thr-AMS, Threonyl-sulfamoyl-adenosine], the pKd in series [1] was 8.35.

Take `Nc1ncnc2c1ncn2[C@@H]1O[C@H](COP(=O)(O)OC(=O)[C@@H](N)Cc2ccc(O)cc2)[C@@H](O)[C@H]1O` [Tyr-AMP, tyrosyl-AMP]: the pKd on PheRS from baker’s yeast (non-cognate aa-AMP) was 6.00.

For the molecule `CC(C)[C@H](N)C(=O)OP(=O)(O)OC[C@H]1O[C@@H](n2cnc3c(N)ncnc32)[C@H](O)[C@@H]1O` [Val-AMP, valyl-adenylate], the “fold weaker affinity than Ile-AMP” value with IleRS from E. coli is “This IleRS binds Val-AMP with a 150-fold weaker affinity than Ile-AMP”.
